Experimental data: PMC12096242 (ACS Omega, 2025)

Molecular target: T1, TcGLIP (MBP-TcGLIP) (Tanacetum cinerariifolium, UniProt H6U1I8)
T1 sequence (H6U1I8 28-365): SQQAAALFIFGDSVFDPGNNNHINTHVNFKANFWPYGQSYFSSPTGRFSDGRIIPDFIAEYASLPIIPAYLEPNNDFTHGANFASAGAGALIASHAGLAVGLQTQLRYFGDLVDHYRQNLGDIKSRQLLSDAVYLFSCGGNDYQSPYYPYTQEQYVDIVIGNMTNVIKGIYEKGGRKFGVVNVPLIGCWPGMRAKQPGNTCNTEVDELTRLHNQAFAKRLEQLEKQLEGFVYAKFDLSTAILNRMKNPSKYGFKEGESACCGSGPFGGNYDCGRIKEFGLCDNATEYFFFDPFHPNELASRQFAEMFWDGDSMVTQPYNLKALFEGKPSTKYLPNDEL
Experiment: HPLC

Structure (SMILES) | IC50
C=C/C=C\CC1=C(C)[C@@H](O[P@@](=O)(CCCCC)Oc2ccc([N+](=O)[O-])cc2)CC1=O [1a] | 23.4 nM
C=C/C=C\CC1=C(C)[C@@H](O[P@](=O)(CCCCC)Oc2ccc([N+](=O)[O-])cc2)CC1=O [1b] | 245 nM
C/C=C\CC1=C(C)[C@@H](O[P@@](=O)(CCCCC)Oc2ccc([N+](=O)[O-])cc2)CC1=O [2a, (S)p, (S)c-2-Methyl-4-oxo-3-((Z)-2-buten-1-yl)cyclopent-2-en-1-yl 4-Nitrophenyl n-Pentylphosphonate] | 29.5 nM
C/C=C\CC1=C(C)[C@@H](O[P@](=O)(CCCCC)Oc2ccc([N+](=O)[O-])cc2)CC1=O [2b, (R)p, (S)c-2-Methyl-4-oxo-3-((Z)-2-buten-1-yl)cyclopent-2-en-1-yl 4-Nitrophenyl n-Pentylphosphonate] | 347 nM
CC/C=C\CC1=C(C)[C@@H](O[P@@](=O)(CCCCC)Oc2ccc([N+](=O)[O-])cc2)CC1=O [3a, (S)p, (S)c-2-Methyl-4-oxo-3-((Z)-2-penten-1-yl)cyclopent-2-en-1-yl 4-Nitrophenyl n-Pentylphosphonate] | 40.7 nM
CC/C=C\CC1=C(C)[C@@H](O[P@](=O)(CCCCC)Oc2ccc([N+](=O)[O-])cc2)CC1=O [3b, (R)p, (S)c-2-Methyl-4-oxo-3-((Z)-2-penten-1-yl)cyclopent-2-en-1-yl 4-Nitrophenyl n-Pentylphosphonate] | 316 nM
C=C/C=C\CC1=C(C)[C@@H](O[P@@](=O)(CCCCCCCC)Oc2ccc([N+](=O)[O-])cc2)CC1=O [4a] | 69.2 nM
C=C/C=C\CC1=C(C)[C@@H](O[P@](=O)(CCCCCCCC)Oc2ccc([N+](=O)[O-])cc2)CC1=O [4b] | 14.1 nM
C/C=C\CC1=C(C)[C@@H](O[P@@](=O)(CCCCCCCC)Oc2ccc([N+](=O)[O-])cc2)CC1=O [5a, (S)p, (S) c-2-Methyl-4-oxo-3-((Z)-2-buten-1-yl)cyclopent-2-en-1-yl 4-Nitrophenyl n-Octylphosphonate] | 120 nM
C/C=C\CC1=C(C)[C@@H](O[P@](=O)(CCCCCCCC)Oc2ccc([N+](=O)[O-])cc2)CC1=O [5b, (R)p, (S)c-2-Methyl-4-oxo-3-((Z)-2-buten-1-yl)cyclopent-2-en-1-yl 4-Nitrophenyl n-Octylphosphonate] | 27.5 nM
CC/C=C\CC1=C(C)[C@@H](O[P@@](=O)(CCCCCCCC)Oc2ccc([N+](=O)[O-])cc2)CC1=O [6a, (S)p, (S)c-2-Methyl-4-oxo-3-((Z)-2-penten-1-yl)cyclopent-2-en-1-yl 4-Nitrophenyl n-Octylphosphonate] | 309 nM
CC/C=C\CC1=C(C)[C@@H](O[P@](=O)(CCCCCCCC)Oc2ccc([N+](=O)[O-])cc2)CC1=O [6b, (R)p, (S)c-2-Methyl-4-oxo-3-((Z)-2-penten-1-yl)cyclopent-2-en-1-yl 4-Nitrophenyl n-Octylphosphonate] | 38 nM
